The source of these data is patent US20040044281A1, “Systems and methods for assessing blood flow in a target tissue” (priority 2002, published 2004).

For this test, the system named is tumor blood flow. Kind of test: DCE-MRI tumor blood flow estimation pre- and post-treatment in patients of a phase I trial. To be noted: individual patients; for Post-treatment E (enhancement) / Post-treatment Gpeak (gradient peak) / Post-treatment tgp10 (time till gradient drops to 10% of Gpeak) / Post-treatment tgp (time to gradient peak): DCE-MRI 4-6 hrs after infusion, tumor ROI; for Change E / Change Gpeak / Change tgp / Change tgp10: post minus pre-treatment. It counts as in vivo, human. Details: Change tgp / Change Gpeak / Change tgp10 / Change E: unit not given here. The procedure:
The above equation (4) for Srel can be solved for the concentration variable C if the baseline set of MR image data set is set equal to Sbaseline, and the post MR sets of image data is set equal to the variable Spostcontrast. Concentration C can be calculated on a pixel by pixel or voxel by voxel basis and then averaged resulting in a data set of Concentration C as a function of time. A shown in Block 50 of FIG. 1, the mathematical derivative of Concentration C is determined, preferably by fitting a curve through the concentration data set and then taking the derivative of the curve equation to acquire a gradient curve. The gradient curve represents the rate of change of the tissue concentration of the contrast agent in the ROI. As shown in block 60 of FIG. 1, the maximum value of the rate of change of concentration per time (dC/dt) or Gpeak, is then determined. Thus, Gpeak, which is the magnitude of the first derivative of the concentration curve, can be employed as a flow analog that maintains a high correlation with flow with minimal sensitivity to variations in volume Ve. MRI acquisition techniques, coupled with image analysis techniques (e.g., intensity, rate of change of intensity), facilitate determining the efficacy of a treatment.
With A=40 mMol·sec (the area under curve without recirculation), B=0.5 mMol (the equilibrium concentration), and tp was the time to peak. […] In each case flow F was varied from 0.001 to 0.03 ml/sec/g. Five parameters were calculated from each curve as shown for example purposes in FIG. 5. Magnitude of the first derivative peak (Gpeak), time from bolus arrival to first derivative peak (tgp,) time for gradient to drop to 10% of peak value (tgp10,), the concentration at tgp10 (denoted CE), and initial area under the CT curve from bolus arrival to 60 sec afterwards (IAUC) (Evelhoch, 1999.
DCE-MRI. Six patients were studied using a 1.5T scanner (Siemens Magnetom Vision). Perfusion studies were obtained with a single-slice Fast Low Angle Shot (FLASH) sequence (TR=10, TE=4, FA=30°, slice thickness=10 mm, matrix=128×256, FOV=16×25 cm-35×35 cm) repeated 128 times, once every 2.6 seconds. The first 10 images were obtained without contrast enhancement, after which an approximately 10 second bolus of Gadolinium-DTPA contrast agent (Magnevist, Berlex Laboratories) was administered intravenously. […] DCE-MRI was performed twice on each patient; once to obtain a pre-treatment baseline, and once 4-6 hrs after infusion of combretestatin. The slice position and orientation between days within each patient was carefully matched to obtain data from the same region of interest (ROI) in the tumor. Image processing was performed off-line using a custom software package that permitted a trained rater to view all 128 images in a study and to interactively identify the tumor ROI.

Several values for one entry are separate records, joined by “and”; a condition that tells them apart may be missing. Identical values can stand only once.

Turning to `COc1ccc(/C=C\c2cc(OC)c(OC)c(OC)c2)cc1OP(=O)(O)O` [CA4P, disodium combretastatin-A-4-3-O-phosphate], for the setting “60 mg/m^2 (10 min)”, the “Post-treatment E (enhancement)” value is 2.01 and 1.87; the “Post-treatment Gpeak (gradient peak)” value was 6.18 and 5.71; the “Post-treatment tgp10 (time till gradient drops to 10% of Gpeak)” value is 25.30 and 34.50; the “Post-treatment tgp (time to gradient peak)” value is 11.50 and 6.90. In addition, for the setting “60 mg/m^2 (10 min)”, the “Change E” value was −0.41 and 0.05; the “Change Gpeak” value was −1.12 and 0.92; the Change tgp is given as 0.00; the “Change tgp10” value was −13.80 and −4.60. In addition, under “60 mg/m^2 (1 hr)”, the “Post-treatment E (enhancement)” value was 1.72 and 1.76 and 1.80 and 1.28 and 1.30; the “Post-treatment Gpeak (gradient peak)” value was 4.93 and 3.57 and 3.47 and 2.19 and 1.48; the “Post-treatment tgp10 (time till gradient drops to 10% of Gpeak)” value is 36.60 and 44.50 (2×) and 20.90 and 52.60; the “Post-treatment tgp (time to gradient peak)” value was 7.86 (2×) and 15.70 and 13.10 and 11.70. Besides, where the note is “60 mg/m^2 (1 hr)”, the “Change E” value was −0.27 and −0.06 and −0.13 and −0.22 and −0.20; the “Change Gpeak” value was −3.76 and −1.05 and −1.53 and −1.44 and −1.75; the Change tgp was 0.00 and 2.60 and 5.24 and 2.62 and −4.00; the “Change tgp10” value was 18.30 and 5.20 and 10.50 and −15.70 and 21.20.
